We go through 3 compounds from US7794965B2, “Method of identifying modulators of PP2A methylase” (Signum Biosciences, Inc., priority 2002, dated 2010).

Structures are written as SMILES. Like-named read-outs stand apart in the source and are kept apart here.

Test [1] has as its target PP2A phosphatase activity (Homo sapiens, UniProt P67775). Particulars: cited from earlier work.
A further test has as its target methylation of PP2A (Homo sapiens, UniProt P67775). The following applies: cited from earlier work.
Another test has as its system cultured human neurons. The following applies: Merrick, 1997; cited from earlier work.
The subject of test [2] is PP2A methylation in SH-SY5Y neuroblastoma cells. Put plainly: PP2A methylation in cultured SH-SY5Y cells, western blotting with antibodies 6A3 (total) and 4D9 (methylated). Particulars: homocysteine 0, 25, 50, 100, and 200 mM, three hours. In kind it is cell-based. The protocol: SH-SY5Y cells were propagated in a 1:1 mixture of Eagle's Minimum Essential Medium and Ham's F12 medium supplemented with 10% Fetal Bovine Serum, Penicillin (100 units/ml)/Streptomycin ([…]) and 2 mM L-Glutamine. The flasks were incubated at 37° C. (5% CO2). Media was changed every 4-6 days until the cells were confluent. On confluency, cells were treated with 25-200 mM homocysteine for 3 hours. […] Each membrane was blocked for 1 hr in 5% milk, followed by an hour incubation in antibodies, 6A3 (1:50) and 4D9 (1:25) which recognize total and methylated PP2A, respectively.
Inhibition of PP2A methylation by homocysteine was determined in cultured cells. Total PP2A and methylated PP2A was determined by western blotting in SH-SY5Y neuroblastoma cells. Homocysteine was added to confluent SH-SY5Y cells to concentrations of […]. Three hours after adding homocysteine the cells were harvested into cold PBS, mixed with SDS sample buffer, and then analyzed by SDS-PAGE and western blotting. To determine total PP2A, the blots were probed with monoclonal antibody 6A3, which recognizes total PP2A. To determine methylated PP2A the blots were probed with monoclonal antibody 4D9, which recognizes methylated but not unmethylated PP2A.
(In general: A western blot detects proteins with antibodies after separation by electrophoresis.)

The conditions of test [3]: for Hcy, total plasma homocysteine, ratio methionine-enriched / not enriched / SAH in brain homogenates, ratio methionine-enriched / not enriched / SAM in brain homogenates, ratio methionine-enriched / not enriched: B6, B12. The source says: (§1) Male C57BL/J6 mice were obtained from the Jackson Laboratories (Bar Harbor, Me.) at 4 weeks of age. Mice were fed on a vitamin sufficient or a vitamin deficient diet for 9 weeks. All of the vitamin-sufficient diets contained folate, vitamin B6, and vitamin B12. All of the vitamin deficient diets lacked these vitamins. […] Another group was fed a vitamin deficient diet that contained basal levels of methionine (Harlan Teklad TD00428). The same was true for mice on the vitamin-sufficient diet. One group was fed a diet enriched for methionine (Harlan Teklad TD98002) and another was fed standard rodent chow 5001 c (Lab Diets). The mice were allowed free access to both food and water.
SAM and SAH levels were measured by high performance liquid chromatography (HPLC) according to the method described by Fu et al. in “Interrelations between plasma homocysteine and intracellular S-adenosylhomocysteine;” Biochem Biophys Res Commun 271: 47-53 (2000), which is incorporated herein by reference in its entirety particularly in parts pertinent to HPLC assays of SAM and SAH.
Samples of mouse brain were weighed and homogenized in two times weight/volume of 0.5 HCIO4. Samples were centrifuged at 12,500 g for 5 min and the supernatant was filtered through a 0.22 mm membrane. Aliquots of 25 ml were injected and run on a hypersil […] particle size, c18 (ODS), 250×4.6 mm (Phenomenex) column with an isocratic elution at 1.3 ml/min. The mobile phase consisted of 0.10 mM sodium acetate, 2.4 mM heptanesulfonic acid, 4.2% acetonitrile, and 50 mM sodium perchlorate. The pH was adjusted to 3.5 with 70% perchloric acid.
Standards were run at five different concentrations: 10,000, 5,000, 2,000, 1,000, and 500 pM for SAM, and 10,000, 5,000, 1,000, 100, and 50 μM for SAH. Linear curves, obtained from the SAM and SAH standards, were used to calculate concentrations of SAM and SAH in the brain homogenates.
Homocysteine was measured by HPLC in serum samples reduced with tri-n-butylphosphine.
Serum was prepared from whole blood, which was allowed to clot for 30 min on ice and then centrifuged. Samples were aliquoted, snap frozen and stored at −80° C. for analysis. For analysis, 150 ml of serum was thawed and reduced in a mixture containing 50 ml of 0.1 M potassium borate, 2 mM EDTA, pH 9.5, 0.2 mM mercaptopropionylglycine, and 20 ml of 100 ml/I of tri-n-butylphosphine in dimethylformamide. The reduction was allowed to proceed for 30 min on ice after which samples were mixed with 125 ml of 0.6 M perchloric acid containing 1 mM EDTA and allowed to react at room temperature for 10 min, and then centrifuged at 15500 g for 10 min. 100 ml was withdrawn from the middle of the supernatant and mixed with 200 ml of 0.2M potassium borate, pH 10.5, containing 5 mM EDTA. 100 ml of 1.0 gm Ammonium 7-fluorobenzo-2-oxa-1,3-diazole-4-sulphonate/I.OL 0.2M potassium borate, pH 9.5, was added and the mixture incubated at 60° C. for 60 min. Samples were cooled and then analyzed using HPLC. 10 ml of derivatized sample was used for each injection. Buffer A (0.1 M acetate buffer, pH 4.0, containing 20 ml/I methanol) and Buffer B (0.1 M acetate buffer, pH 6.0, containing 50 ml/I methanol) were run at a flow rate of 1.0 ml/min from A to B over 12.5 min then 2.5 min of B, a 3.0 min gradient back to A and 2.0 min A before next injection. A standard was also analyzed to quantify values of homocysteine. Mercaptopropionylglycine was added to the reduction buffer as an internal standard to monitor any potential loss during reduction.
Mice were fed on diets containing or deficient in folate, vitamin B6 and B12 as set out above. SAM, SAH and Hcy were determined as described above.
(§2) The effects of methionine enrichment were determined either in the presence or absence of a deficiency for folate, vitamin B6, and vitamin B12.

For another test, the system named is tau. The following applies: for CP13 tau phosphorylation, ratio methionine-enriched / not enriched / PHF1 tau phosphorylation, ratio methionine-enriched / not enriched / TG5 total tau, ratio methionine-enriched / not enriched: B6, B12.
Description: as §1
Mice brains were homogenized in 10 times volume/weight buffer containing:
62.5 mM Tris-HCl, pH 6.8, 10% (w/v) glycerol, 5% (v/v) [3-mercaptoethanol, 2.3% (w/v) SDS, 100 nM okadaic acid (OA), 1 mM phenylmethylsulfonyl fluoride, and 1 mM EDTA. This is a modified version of the buffer reported by Planel et al. [Planel, 2001 #54]. The homogenates were boiled for 5 mins and then centrifuged for 15 mins at 4° C. in a Fisher micro-centrifuge model 235A. The supernatant was then diluted 1:2 in SDS-sample buffer and loaded on a 12.5% percent SDS-PAGE gel. Gels were run at 200 V, transferred onto PVDF membrane at 100 V for 1 hr. Each membrane was blocked for 1 hr in 5% milk, followed by overnight incubation in antibodies, CP13 (1:200) and PHF1 (1:500) which recognize phosphoserine 202 and phosphoserine 396/404 respectively [Greenberg, 1992 #55; Otvos, 1994 #59] and TG5 (1:1000), which recognizes a phosphorylation independent epitope on tau [Jicha, 1997 #56]. The following day, membranes were washed 5× for 5 mins each with TBS containing tween (TBST) and then incubated with goat anti-mouse IgG horseradish peroxidase coupled secondary antibody, diluted 1:25,000 in 5% milk prepared in TBS, for 1 hr. Following the secondary antibody incubation, the membranes were washed 5× for 10 mins in TBST and developed with ECL plus (Amersham). Signal intensities of X-ray film exposures for each membrane were quantified by scanning densitometry using NIH Image.
Mice were fed on diets containing or deficient in folate, vitamin B6, and vitamin B12 as described above. Tau phosphorylation was determined in the mice by SDS-PAGE and western blotting using the procedures described above. The western blots were probed using three different tau-specific monoclonal antibodies, as discussed above.
as §2
Ratios are given for values obtained from mice fed diets enriched with methionine divided by values obtained from mice fed diets not enriched for methionine.
Feeding and assays were performed as described above. Hcy, total plasma homocysteine; SAM and SAH values measured in brain homogenates. CP13 and PHF1, tau phosphorylation and TG5, total tau (see data below) body, brain, and heart weights (see data in examples above).

[4] abbreviates: excess methionine added to vitamin-deficient diets.

PP2A phosphatase activity, sequence (P67775 whole entry): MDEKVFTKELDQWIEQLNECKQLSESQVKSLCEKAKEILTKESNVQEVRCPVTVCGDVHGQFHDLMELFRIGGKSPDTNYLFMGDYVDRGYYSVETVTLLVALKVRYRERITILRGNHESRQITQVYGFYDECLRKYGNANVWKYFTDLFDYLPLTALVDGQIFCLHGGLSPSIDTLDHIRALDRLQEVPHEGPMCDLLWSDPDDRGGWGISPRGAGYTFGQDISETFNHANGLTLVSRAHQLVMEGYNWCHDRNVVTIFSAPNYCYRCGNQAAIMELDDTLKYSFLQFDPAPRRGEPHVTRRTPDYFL
methylation of PP2A, sequence (P67775 whole entry): as above

In the case of `C=C1[C@@H](O)[C@@H]2O[C@]3(CC[C@H](/C=C/[C@@H](C)[C@@H]4CC(C)=C[C@@]5(O[C@H](C[C@@](C)(O)C(=O)O)CC[C@H]5O)O4)O3)CC[C@H]2O[C@@H]1[C@@H](O)C[C@H](C)[C@H]1O[C@@]2(CCCCO2)CC[C@H]1C` [Okadaic acid], in test [1], the “inhibition of PP2A phosphatase activity” value is “potent inhibitor”. Besides, the “inhibition of methylation of PP2A” value on methylation of PP2A is given as “potent inhibitor”. For the same compound, in the test on cultured human neurons, the “effect on tau and microtubules in cultured human neurons” value was “tau hyperphosphorylation, reduced binding of tau to MTs, MT depolymerization, and axonal degeneration”.
Turning to `N[C@@H](CCS)C(=O)O` [homocysteine], in test [2], the “Total PP2A (antibody 6A3)” value is given as “remained much the same” and the “level of methylated PP2A (antibody 4D9)” value was “declined dramatically”.
In the case of `CSCC[C@H](N)C(=O)O` [methionine], in test [3] (diets with folate), the “Hcy, total plasma homocysteine, ratio methionine-enriched / not enriched” value was determined as 1.9; the “SAH in brain homogenates, ratio methionine-enriched / not enriched” value was found to be 0.8; the “SAM in brain homogenates, ratio methionine-enriched / not enriched” value worked out at 0.9. In test [3] (diets without folate), the “Hcy, total plasma homocysteine, ratio methionine-enriched / not enriched” value was found to be 0.9; the “SAH in brain homogenates, ratio methionine-enriched / not enriched” value was found to be 1.1; the “SAM in brain homogenates, ratio methionine-enriched / not enriched” value was 1.2. Moreover, the “change in plasma Hcy” value in test [3] (excess methionine added to the normal diet) is reported as “approximately two-fold increase”. In test [3] (setting [4]), the “effect on methylation metabolism” value is given as “did not have a sizeable significant effect”. Besides, in the test on tau (diets with folate), the “CP13 tau phosphorylation, ratio methionine-enriched / not enriched” value stood at 1.1; the “PHF1 tau phosphorylation, ratio methionine-enriched / not enriched” value was found to be 1.2; the “TG5 total tau, ratio methionine-enriched / not enriched” value is 1.2. Moreover, in the test with tau (diets without folate), the “CP13 tau phosphorylation, ratio methionine-enriched / not enriched” value is 1; the “PHF1 tau phosphorylation, ratio methionine-enriched / not enriched” value is listed as 0.9; the “TG5 total tau, ratio methionine-enriched / not enriched” value is given as 1. In the test with tau (setting [4]), the “effect on tau hyperphosphorylation” value is “did not have a sizeable significant effect”.
